Measurements reported in US7220753B2, “2,7-substituted octahydro-1H-pyrido[1,2-a]pyrazine derivatives as ligands for serotonin receptors” (Pfizer Inc., priority 1994, dated 2007).
Structures can show the parent of a compound that is named as a salt.

| Structure (SMILES) | melting point |
| --- | --- |
| c1ccc(O[C@@H]2CC[C@H]3CN(c4ncccn4)CCN3C2)cc1 (racemic) | 147 to 148 °C |
| Fc1ccc(OC[C@@H]2CC[C@H]3CN(c4ncc(Cl)cc4Cl)CCN3C2)cc1 (racemic) [Example 15, (7RS,9aSR)-7-(4-Fluorophenoxy)methyl-2-(3,5-dichloropyridin-2-yl)-2,3,4,6,7,8,9,9a-octahydro-1H-pyrido[1,2-a]pyrazine] | 247 to 248 °C |
| Clc1nccc(N2CCN3C[C@H](COc4ccccc4)CC[C@H]3C2)n1 (racemic) [Example 29, (7RS,9aSR)-7-Phenoxymethyl-2-(2-chloropyrimidin-4-yl)-2,3,4,6,7,8,9,9a-octahydro-1H-pyrido[1,2-a]pyrazine] | 227 to 233 °C (dec.) |
| c1ccc(OC[C@@H]2CC[C@H]3CN(c4cnccn4)CCN3C2)cc1 (racemic) [Example 30, (7RS,9aSR)-7-Phenoxymethyl-2-(pyrazin-2-yl)-2,3,4,6,7,8,9,9a-octahydro-1H-pyrido[1,2-a]pyrazine] | 217 to 219 °C |
| Clc1cncc(N2CCN3C[C@H](COc4ccccc4)CC[C@H]3C2)n1 (racemic) [Example 31, (7RS,9aSR)-7-Phenoxymethyl-2-(6-chloropyrazin-2-yl)-2,3,4,6,7,8,9,9a-octahydro-1H-pyrido[1,2-a]pyrazine] | 247 °C (dec.) |
| Fc1ccc2c(ccn2C[C@@H]2CC[C@H]3CN(c4ncccn4)CCN3C2)c1 (racemic) [Example 40, (7RS,9aSR)-7-(5-Fluoroindol-1-ylmethyl)-2-(pyrimidin-2-yl)-2,3,4,6,7,8,9,9a-octahydro-1H-pyrido[1,2-a]pyrazine] | 70 to 72 °C |
| CSc1nc(N2CCN3CC(COc4ccccc4)CCC3C2)ncc1F (stereo not drawn) [Example 4, (7RS,9aSR)-7-Phenoxymethyl-2-(5-fluoro-4-thiomethylpyrimidin-2-yl)-2,3,4,6,7,8,9,9a-octahydro-1H-pyrido[1,2-a]pyrazine] | 192 to 198 °C |
| CSc1nc(N2CCN3CC(COc4ccc(F)cc4)CCC3C2)ncc1F (stereo not drawn) [Example 6, (7RS,9aSR)-7-(4-Fluorophenoxy)methyl-2-(5-fluoro-4-thiomethyl-pyrimidin-2-yl)-2,3,4,6,7,8,9,9a-octahydro-1H-pyrido[1,2-a]pyrazine] | 201 to 210 °C |
| Fc1cnc(N2CCN3C[C@H](CCc4ccccc4)CC[C@H]3C2)nc1 [Example 12, (7R,9aS)-7-(2-Phenyl)ethyl-2-(5-fluoropyrimidin-2-yl)-2,3,4,6,7,8,9,9a-octahydro-1H-pyrido[1,2-a]pyrazine] | 250 to 252 °C |
| O=c1oc2ccccc2n1C[C@@H]1CC[C@H]2CN(c3ccc(Cl)cn3)CCN2C1 [Example 39, 3-[(7R,9aS)-2-(5-Chloropyridin-2-yl)-2,3,4,6,7,8,9,9a-octahydro-1H-pyrido[1,2-a]-pyrazin-7-ylmethyl]-3H-benzoxazol-2-one] | 247 to 248 °C |
| Fc1ccc(SC[C@@H]2CCC3CN(c4ncccn4)CCN3C2)cc1 (some centres unmarked) [Example 41] | 99 to 101 °C |
| O=S(=O)(C[C@@H]1CCC2CN(c3ncccn3)CCN2C1)c1ccc(F)cc1 (stereo partly drawn) [Example 42, (7RS,9aSR)-7-(4-Fluorophenylsulfonyl)methyl-2-(pyrmidin-2-yl)-2,3,4,6,7,8,9,9a-octahydro-1H-pyrido[1,2-a]pyrazine] | 155 to 157 °C |
| Fc1cnc(N2CCN3C[C@H](Cn4ccc5cc(F)ccc54)CC[C@H]3C2)nc1 [Example 43, (7R,9aS)-7-(5-Fluoroindol-1-yl)methyl-2-(5-fluoropyrimidin-2-yl)-2,3,4,6,7,8,9,9a-octahydro-1H-pyrido[1,2-a]pyrazine] | 180 to 182 °C |
| O=C1Cc2ccccc2N1C[C@@H]1CC[C@H]2CN(c3ncccn3)CCN2C1 [Example 44, 1-[(7R,9aS)-2-(Pyrimidin-2-yl)-2,3,4,6,7,8,9,9a-octahydro-1H-pyrido[1,2-a]pyrazin-7-ylmethyl]-1,3-dihydro-indol-2-one] | 174 to 176 °C |

Continued, values first:

| melting point | Structure (SMILES) |
| --- | --- |
| > 265 °C (dec.) | c1ccc(OC[C@@H]2CC[C@H]3CN(c4ccncn4)CCN3C2)cc1 (racemic) |
| 246 to 250 °C | Fc1ccc(OC[C@@H]2CC[C@H]3CN(c4cccnn4)CCN3C2)cc1 (racemic) (as salt: sulfate) [Example 35, (7RS,9aSR)-7-(4-Fluorophenoxy)methyl-2-(pyridazin-3-yl)-2,3,4,6,7,8,9,9a-octahydro-1H-pyrido[1,2-a]pyrazine] |
| 215 to 217 °C | Fc1cnc(N2CCN3C[C@H](COc4ccccc4)CC[C@H]3C2)nc1 (racemic) [Example 5, (7RS,9aSR)-7-Phenoxymethyl-2-(5-fluoropyrimidin-2-yl)-2,3,4,6,7,8,9,9a-octahydro-1H-pyrido[1,2-a]pyrazine] |
| 218 to 224 °C | Clc1ccc(N2CCN3C[C@H](COc4ccccc4)CC[C@H]3C2)nc1 (racemic) [Example 17, (7RS,9aSR)-7-Phenoxymethyl-2-(5-chloropyridin-2-yl)-2,3,4,6,7,8,9,9a-octahydro-1H-pyrido[1,2-a]pyrazine] |
| 235 to 240 °C | N#Cc1cc(F)ccc1N1CCN2C[C@H](COc3ccc(F)cc3)CC[C@H]2C1 (racemic) [Example 23, (7RS,9aSR)-7-(4-Fluorophenoxy)methyl-2-(2-cyano-4-fluorophenyl)-2,3,4,6,7,8,9,9a-octahydro-1H-pyrido[1,2-a]pyrazine] |
| 214 to 215 °C | Fc1ccc(OC[C@@H]2CC[C@H]3CN(c4ccc(F)cn4)CCN3C2)cc1 (racemic) [Example 28, (7RS,9aSR)-7-(4-Fluorophenoxy)methyl-2,3,4,6,7,8,9,9a-octahydro-2-(5-fluoropyridin-2-yl)-1H-pyrido[1,2-a]pyrazine] |
| > 265 °C (dec.) | Clc1ccc(N2CCN3C[C@H](COc4ccccc4)CC[C@H]3C2)nn1 (racemic) [Example 33, (7RS,9aSR)-7-Phenoxymethyl-2-(6-chloropyridazin-3-yl)-2,3,4,6,7,8,9,9a-octahydro-1H-pyrido[1,2-a]pyrazine] |
| 261 to 263 °C | Fc1ccc(OC[C@@H]2CC[C@H]3CN(c4ccccn4)CCN3C2)cc1 [Example 18, (7R,9aS)-7-(4-Fluorophenoxy)methyl-2-(pyridin-2-yl)-2,3,4,6,7,8,9,9a-octahydro-1H-pyrido[1,2-a]pyrazine] |
| 265 to 270 °C | Fc1ccc(OC[C@@H]2CC[C@H]3CN(c4ccc(Cl)nn4)CCN3C2)cc1 [Example 20, (7R,9aS)-7-(4-Fluorophenoxy)methyl-2-(6-chloropyridazin-3-yl)-2,3,4,6,7,8,9,9a-octahydro-1H-pyrido[1,2-a]pyrazine] |
| 144 to 149 °C | Nc1cc(F)ccc1N1CCN2C[C@H](COc3ccc(F)cc3)CC[C@H]2C1 [Example 24, (7R,9aS)-7-(4-Fluorophenoxy)methyl-2-(2-amino-4-fluorophenyl)-2,3,4,6,7,8,9,9a-octahydro-1H-pyrido[1,2-a]pyrazine] |
| 247 to 252 °C | Fc1ccc(OC[C@@H]2CCC3CN(c4ccccc4)CCN3C2)cc1 (some centres unmarked) [Example 26] |
| 228 to 230 °C | COc1cccc(N2CCN3C[C@H](COc4ccc(F)cc4)CCC3C2)n1 (stereo partly drawn) [Example 27, (7RS,9aSR)-7-(4-Fluorophenoxy)methyl-2-(6-methoxypyridin-2-yl)-2,3,4,6,7,8,9,9a octahydro-1H-pyrido[1,2-a]pyrazine] |
